Results taken from patent US20040259184A1, “Fluorescent methods for the high-throughput quantification of tartrate-resistant acid phosphatase (TRAP)” (Pharmacia Corporation, priority 2003, published 2004).

Legend:
[1] = test system: TRAP activity in RAW 264.7 monocyte-macrophage cells differentiated into OCL; test: Fluorescent per-well TRAP activity assay in RAW cells differentiated into OCL; assay type: cell-based; conditions: for Effect on TRAP activity: day 6; for Effect on detection of TRAP fluorescence: up to 10.0 uM; for Effect on detection of TRAP fluorescence / Compound amount at which decrease of TRAP fluorescence is maximal / Compound amount at which dramatic decrease of TRAP fluorescence starts / Inhibition of TRAP activity (result in words): day 6, FIG. 4; for Inhibition of TRAP activity (result in words): IC50's comparable to previously published data
Description: (§1) RAW (RAW 264.7 monocyte-macrophage) RAW (ATTC, Manassas, Va.) cells were maintained in culture using DMEM (Dulbecco's Modified Eagle Medium) media containing L-glutamine at 584 mg/L, 1% penicillin/streptomycin, and 10% FBS (fetal bovine serum). For osteoclast differentiation RAW cells were put down onto 96 well plates at a density of 1,000 cells per well in alpha MEM (Minimum Essential Medium) media containing L-glutamine at 292 mg/L, 1% penicillin/streptomycin, 10% FBS, soluble RANKL (PeproTech, Rocky Hill, N.J.) at 10 ng/ml, and M-CSF (Cell Sciences, Norwood, Mass.) at 25 ng/ml. All media were changed every two days. For experiments with compounds, the compounds were added at the time of plating the cells in differentiation media. Additionally compounds were replenished during every media change leading up to the day 6 termination of the experiment.
(§2) Media was removed and cells were fixed onto their plated surface with 4% formaldehyde (Sigma, Saint Louis, Mo.) in PBS (Phosphate Buffer Saline) solution for 20 minutes. After fixing, cells were permeablized in PBS with 0.1% Tween (Sigma, Saint Louis, Mo.) for 15 minutes. Cells were then incubated with 200 uM of ELF 97 phosphatase substrate (Molecular Probes, Eugene, Oreg.) for 15 minutes in a 3.4 mM acetate buffered solution (pH 5.0) containing 6.7 mM Tartrate (Sigma, Saint Louis, Mo.). These conditions (of slightly acidic pH and high concentrations of tartrate) discriminate TRAP activity from other phosphatases. Cells were then washed twice with PBS (pH 7.4). After the final wash, plates were immediately quantified for TRAP activity.
(§3) Quantification of TRAP TRAP activity per well was quantified on a SpetraFluor Plus (Tecan, Research Triangle Park, N.C.) using an excitation of 360 nm and an emission of 550 nm using the optimal gain function. For quantification of the number of OCL, PI (propidium iodide) (Sigma, Saint Louis, Mo.) at a final concentration of 10 ug/ml was added to the TRAP stained cells to nonspecifically stain the cells. After PI staining the 96 well plates were analyzed using an ArrayScanII (Cellomics, Pittsburgh, Pa.) on the Nuclear Translocation software. In this Nuclear Translocation software analysis, the cytoplasmic image area is not used while the nuclear image area is expanded to encompass the entire PI stained cellular area. Cell size selection was performed through nuclear size selection criteria within Channel 1 of the Nuclear Translocation software package. TRAP intensity selection was performed through total fluorescence intensity utilizing Channel 2.

[2] = test system: OCL differentiated from RAW 264.7 monocyte-macrophage cells; test: Automated OCL counting assay (size and TRAP-intensity selected cells, ArrayScan); assay type: cell-based; conditions: day 6, FIG. 5
Description: as §1, §2, §3
The determination of differentiation into OCL is typically based upon morphological criteria along with staining for TRAP. […] Therefore, basing differentiation solely upon per well TRAP activity could lead to a false positive reading. To circumvent this limitation we developed an automated approach to quantify the number of OCL based upon the size of the cells in addition to TRAP activity. Due to the limitations of the software analyses, the size of the cells were used in place of number of nuclei as a selection criteria for OCL formation. The size of the cells typically correlates with cell fusion and the number of nuclei. Also while some single nucleated cells can also be large in size, these cells typically tend not to be TRAP positive. The data capture was performed using the Cellomics ArrayScan 11, which is an automated fluorescent microscope and plate handler. The data analyses were performed by using the Cellomic's “Nuclear Translocation” imaging analysis software.

OCL formation = conditions: previously published data (Matsumoto 2000; Kumar 2001); read-out: IC50 of dose dependent inhibition of OCL formation; cited from earlier work

COc1cccc(-c2cc(=O)c3ccccc3o2)c1N [PD98059]
Effect on TRAP activity [1]: little effect
Effect on detection of TRAP fluorescence [1]: did not significantly inhibit
Effect on number of TRAP positive cells counted ([2]; at 10.0 uM): no significant decrease
Effect on the number of OCL [2]: little effect

C[S+]([O-])c1ccc(-c2nc(-c3ccc(F)cc3)c(-c3ccncc3)[nH]2)cc1 (stereo not drawn) [SB203580]
Compound amount at which decrease of TRAP fluorescence is maximal [1]: 10.0 µM
Compound amount at which dramatic decrease of TRAP fluorescence starts [1]: 1.0 µM
Inhibition of TRAP activity (result in words) [1]: dose dependent inhibition of TRAP activity
Compound amount at which decrease in quantity of TRAP positive cells counted starts [2]: 0.3 µM
Concentration at which decrease in TRAP positive cells counted is maximal (near zero amounts) [2]: 10.0 µM

CCc1nc(-c2ccc(OC)cc2)[nH]c1-c1ccncc1 [SB202474]
Effect on TRAP activity [1]: little effect
Effect on detection of TRAP fluorescence [1]: did not significantly inhibit
Compound amount at which decrease in quantity of TRAP positive cells counted starts [2]: 0.3 µM
Concentration at which decrease in TRAP positive cells counted is maximal (near zero amounts) [2]: 10.0 µM
Effect on the number of OCL [2]: little effect

Oc1ccc(-c2nc(-c3ccc(F)cc3)c(-c3ccncc3)[nH]2)cc1 [SB202190]
Compound amount at which decrease of TRAP fluorescence is maximal [1]: 10.0 µM
Compound amount at which dramatic decrease of TRAP fluorescence starts [1]: 1.0 µM
Inhibition of TRAP activity (result in words) [1]: dose dependent inhibition of TRAP activity
IC50 (OCL formation): 1000 nM
